Data from US20240300979A1, “SN-38 DERIVATIVE, NANO-PARTICLES CONTAINING SAID DERIVATIVE, MEDICINE, AND METHOD FOR PRODUCING SAID NANO-PARTICLES” (JAPAN SCIENCE AND TECHNOLOGY AGENCY, priority 2021, published 2024).
Blank lines part the entries; values can stand above or below the compound they belong to.

What was measured:
[1] = test system: Human liver cancer cell line HePG2 or human breast cancer cell line KPL-4; test: In vitro activity test, Test Example 1 (cell viability, Cell Counting Kit-8); type: cell-based; settings: nanoparticle dispersion, 0.04 to 10 μM, 48 hours
Method: (§1) Human liver cancer cell line HePG2 or human breast cancer cell line KPL-4 was seeded in a 96-well plate at 2×10^4 cells/well. On the next day, irinotecan and each SN-38 derivative (compound A ((SN-38×C6 dimer (S—S, ester)), compound B (SN-38×C6 dimer (S—S, carbonate))) nanoparticle dispersion were added to the HepG2 cell culture medium to 0.04 to 10 μM. Then, the cells were cultured for 48 hours, and the cell viability was measured by a colorimetric method using the Cell Counting Kit-8 (produced by Dojindo Laboratories) and a microplate reader.

[2] = Nanoparticle aqueous dispersion, particle size and aggregation by SEM and DLS; type: physicochemical; settings: 0.1 mM aqueous dispersion of nanoparticles
Method: 100 μL of THF solution of compound A or B prepared to 10 mM was injected into 10 mL of water using a syringe at room temperature, followed by stirring for 2 seconds at 1500 rpm, thereby obtaining an aqueous dispersion of nanoparticles. The concentration of the final aqueous dispersion was 0.1 mM.
100 μL of DMSO or THF solution of each compound prepared to 10 mM was injected into 10 mL of water using a syringe at room temperature, followed by stirring for 2 seconds at 1500 rpm, thereby obtaining an aqueous dispersion of nanoparticles. The concentration of the final aqueous dispersion was 0.1 mM.

[3] = Dispersion stability of the nano-prodrug; type: physicochemical
Description: (§2) Then, nanoparticles were produced. […] The present invention is based on these new findings. Therefore, the present invention provides the following items: […]

[4] = Drug release triggered by the S-S bond on addition of dithiothreitol and glutathione; type: physicochemical; settings: dithiothreitol and glutathione (reduced form) added to the nano-prodrug
Description: as §2

[5] = test system: human colon cancer cell line HCT-116; test: In vitro activity test, Test Example 4, cancer cell; type: cell-based; settings: HCT-116 (Cancer cell), 48 hours, read-out: cell viability IC50
Method: as §1
(§3) As in Test Example 1, human colon cancer cell line HCT-116 or human mammary epithelial cell line HMEC was seeded in a 96-well plate at 2×10^4 cells/well. On the next day, SN-38 and the SN-38 derivative (SNC4DC) nanoparticle dispersion were added to the cell culture medium to 0.04 to 10 μM. Then, the cells were cultured for 48 hours, and the cell viability was measured by a colorimetric method using the Cell Counting Kit-8 (produced by Dojindo Laboratories) and a microplate reader.

[6] = test system: human mammary epithelial cell line HMEC; test: In vitro activity test, Test Example 4, normal cell; type: cell-based
Method: as §1, §3

SMILES: CCCCCC(=O)Oc1ccc2nc3c(c(CC)c2c1)Cn1c-3cc2c(c1=O)COC(=O)[C@@]2(CC)OC(=O)CCCSSCCCC(=O)O[C@]1(CC)C(=O)OCc2c1cc1n(c2=O)Cc2c-1nc1ccc(OC(=O)CCCCC)cc1c2CC [compound A]
pharmacological activity (cell viability, FIG. 1) [1]: did not exhibited good pharmacological activity
particle size [2]: about 100 nm
dispersion stability [3]: ≥ 7 days
cleavage of the S-S bond [4]: the cleavage of the S—S bond proceeded somewhat
formation of C6 acyloxy-substituted SN-38 derivative (drug release) [4]: not confirmed

IC50 [5]: 40 nM
SMILES: CCc1c2c(nc3ccc(O)cc13)-c1cc3c(c(=O)n1C2)COC(=O)[C@]3(O)CC [SN-38]
toxicity to normal cells ([6]; HMEC, in words from Table 4): highly toxic to normal cells
IC50 ([6]; Homo sapiens, HMEC (Normal cell), 48 hours, read-out: cell viability IC50): 550 nM
